Source: US7329688B2, “Natural vitamin E compositions with superior antioxidant potency” (Soft Gel Technologies, Inc., priority 2002, dated 2008)

Experiment: Oxygen radical absorbance capacity (ORACFL-LIPO) assay with fluorescein probe, RMCD, AAPH, Trolox standard
Conditions: for Antioxidant activity (ORAC), μmole Trolox equivalent per gram sample: 75 mM phosphate buffer pH 7.4, 7% RMCD; for Antioxidant activity (ORAC) per 400 IU: μmole TE/g × total weight in grams of formula which gives 400 IU
Description: The antioxidant activities of natural d-alpha-tocopherol, mixed tocopherols and tocotrienols, and formulations comprising all forms of vitamin E were determined employing an improved oxygen radical absorbance capacity (ORAC) assay using fluorescein (FL) as a fluorescent probe, randomly methylated β-cyclodextrin (RMCD) to enhance solubility of lipophilic antioxidants in aqueous medium, 2,2′-azobis (2-amidino-propane) dihydrochloride (AAPH) as peroxyl radical generator, and Trolox as a standard in 75 mM phosphate buffer.
(§1) The antioxidant activity, commonly referred to as oxygen radical absorbance capacity (ORAC), of a lipophilic substance was measured employing a newly developed assay. This assay is based on the use of: (a) fluorescein (FL) as the fluorescent probe, (b) randomly methylated β-cyclodextrin (RMCD) as a molecular host to enhance the solubility of lipophilic antioxidants in aqueous solution, (c) 2,2′-azobis (2-amidino-propane) dihydrochloride (AAPH) as a peroxyl radical generator, and (d) 6-hydroxy-2,5,7,8-tetramethyl-2-carboxylic acid (Trolox) as a standard in 75 mM phosphate buffer (pH 7.4).
The antioxidant activities of vitamin E formulations comprising all compounds of tocopherols and tocotrienols were determined employing an improved oxygen radical absorbance capacity (abbreviated ORACFL-LIPO) assay using fluorescein (FL) as the fluorescent probe, randomly methylated β-cyclodextrin (RMCD) as the water solubility enhancer for lipophilic antioxidants in 75 mM phosphate buffer (pH 7.4).
In the presence ofperoxyl radicals derived from AAPH, the indicator FL gradually loses its fluorescence. The antioxidant activity of a substance is measured by its ability to retain the fluorescence of FL in the presence of peroxyl radicals. The net protection of FL was measured as previously described by Ou et al.
All other standards were commercially available form Sigma or Aldrich. All ORAC analyses were performed on a COBAS FARA II analyzer (Roche Diagnostic System Inc., Branchburg, NJ) using an excitation wavelength of 493 nm and an emission filter of 515 nm.
Approximately 0.5 g of sample was dissolved in 20 mL of acetone. An aliquot of sample solution was appropriately diluted with 7% RMCD solvent (w/v) made in a 50% acetone-water mixture (v/v) and was shaken for 1 hr at room temperature on an orbital shaker at 400 rpm. The sample solution was ready for analysis after further dilution with 7% RMCD solvent.
The automated ORAC assay was carried out on a COBAS FARA II spectrofluorometer centrifugal analyzer as previously described (9). With the exception of samples and Trolox standards, which were made in 7% RMCD solvent, all other reagents were prepared at 75 mM phosphate buffer (pH 7.4). In the final assay mixture (0.4 mL total volume), FL (6.3×10^−8 M) was used as a target of free radical attack and AAPH (1.28×10^−2 M) was used as a peroxyl radical generator. 7% RMCD was used as the blank, and Trolox (12.5, 25,50, and 100 μM) was used as the control standard. The analyzer was programmed to record the fluorescence of FL every minute after the addition of AAPH. All measurements were expressed relative to the initial reading. Final results were calculated using the differences of areas under the FL decay curves between the blank and a sample.
as §1, with “6-hydroxy-2,5,7,8-tetrmethyl-2-carboxylic” for “6-hydroxy-2,5,7,8-tetramethyl-2-carboxylic”
In the presence of peroxyl radicals derived from AAPH, the indicator FL gradually loses its fluorescence. […]

Row | SMILES | Antioxidant activity (ORAC), μmole Trolox equivalent per gram sample (Table 1) | Antioxidant activity (ORAC) in words, relative to d-alpha-tocopherol (qualitative statement) | Antioxidant activity (ORAC), μmole Trolox equivalent per gram sample (Table 1, listed as alpha-tocopherol (87%)) | Antioxidant activity (ORAC), μmole Trolox equivalent per gram sample (Table 1, listed as d-alpha-tocopherol (87%)) | Antioxidant activity (ORAC) per 400 IU (Table 1) | Antioxidant activity (ORAC), μmole Trolox equivalent per gram sample (Table 2) | Antioxidant activity (ORAC) per 400 IU (Table 2)
1 | CC(=O)Oc1c(C)c(C)c2c(c1C)CCC(C)(CCC[C@H](C)CCC[C@H](C)CCCC(C)C)O2 (stereo partly drawn) [Alpha-Tocopherol Acetate] | 14 ± 10 μmole TE/g | no antioxidant activity | – | – | – | – | –
2 | Cc1c(C)c2c(c(C)c1O)CC[C@@](C)(CCC[C@H](C)CCC[C@H](C)CCCC(C)C)O2 [d-alpha-Tocopheral (87%), d-alpha-tocopherol] | 1,293 ± 64 μmole TE/g | – | 1,293 μmole TE/g | 1,293 μmole TE/g | 398 μmole TE/400IU | 1,293 ± 80 μmole TE/g | 413 μmole TE/400IU
